# Experimental data taken from patent US11261429B2, “Enriched and expanded human cord blood stem cells for treatment of hematological disorders” (ICAHN SCHOOL OF MEDICINE AT MOUNT SINAI, priority 2013, dated 2022).
# Where “and” joins values, the source holds several entries; their conditions need not be identical. Equal values may be shown once. Entries after “also recorded” stand apart in the source; their conditions may differ.
# Assays:
# HDAC1 = assay: HDAC protein levels in CB-MNCs, Western blot densitometry; type: cell-based, human; details: 24 hr, SCR 8 μM, C433 80 μM, VPA 1.25 mM
# HDAC6 = assay: as above; type: cell-based, human; details: 24 hr, SCR 8 μM, C433 80 μM, VPA 1.25 mM
# Text: Cellular proteins were separated by SDS-PAGE using Novex (Invitrogen) and transferred by iBlot (Invitrogen). The membranes were probed with mAbs against individual histone deacetylases (HDAC1, HDAC2, HDAC3, HDAC4, HDAC5, HDAC6, and β-actin; Cell Signaling Technology) and developed using a chemiluminescence system with HRP-conjugated secondary antibodies (Amersham Biosciences) according to the manufacturer's instructions.
# ALDH activity = ALDH activity (Aldefluor) in expanded CB CD34+ cells; type: cell-based, human; details: cytokines, 7 days
# Text: Increased ALDH activity is a characteristic of primitive hematopoietic cells and cancer stem cells (Hess et al., Functional Characterization of Highly Purified Human Hematopoietic Repopulating Cells Isolated According to Aldehyde Dehydrogenase Activity,” Blood 104:1648-1655 (2004); Lioznov et al., “Aldehyde Dehydrogenase Activity as a Marker for the Quality of Hematopoietic Stem Cell Transplants,” Bone Marrow Transplant 35:909-914 (2005); Storms et al., “Distinct Hematopoietic Progenitor Compartments are Delineated by the Expression of Aldehyde Dehydrogenase and CD34,” Blood 106:95-102 (2005); Aguila et al., “SALL4 is a Robust Stimulator for the Expansion of Hematopoietic Stem Cells,” Blood 118:576-585 (2011), which are hereby incorporated by reference in their entirety). To identify cell populations with high ALDH activity, an Aldefluor kit (StemCell Technologies Inc.) was used according to the manufacturer's instructions, Cells (1×10^6/ml) were suspended in assay buffer, then half of the cells were added to the Aldefluor substrate (test sample) and the remaining half was added to DEAB inhibitor (control sample). The test and control samples were incubated for 40 minutes at 37° C. Cells were subsequently stained with CD34-APC and/or CD117-PE mAbs or an isotype-matched IgG for an additional 20 minutes. Cells were washed and analyzed by a BD FACSCanto II Flow Cytometer.
# NSG mice [1] = type: in vivo
# Experimental: As described previously, NSG mice were sublethally irradiated with 300 cGy 4 hours prior to the infusion of PCs (2×10^5), and CD34+ cells re-isolated after a week of culture under control conditions or cultures containing VPA in the presence or absence of cytokines were injected into NSG mice via the tail vein (Milhem et al., “Modification of Hematopoietic Stem Cell Fate by 5aza 2′deoxycytidine and Trichostatin A,” Blood 103:4102-4110 (2004); Araki et al., “Expansion of Human Umbilical Cord Blood SCID-Repopulating Cells Using Chromatin-Modifying Agents,” Exp. Hematol. 34:140-149 (2006); Araki et al., “Chromatin-Modifying Agents Permit Human Hematopoietic Stem Cells to Undergo Multiple Celt Divisions While Retaining Their Repopulating Potential,” Blood 109:3570-3578 (2007), which are hereby incorporated by reference in their entirety). […] BM cells from each mouse were analyzed for the presence of cells expressing human CD45-PECy7 or APC, CD34-APC or FITC, CD36-APC, CD33-PECy7, CD14-FITC, CD19-PE, CD41-FITC, CD71-FITC, and glycophorin A-PE (GPA-PE). The presence of at least 0.1% human CD45+ cells in the marrow of each recipient mouse was considered indicative of donor human hematopoietic engraftment (Milhem et al., “Modification of Hematopoietic Stem Cell Fate by 5aza 2′deoxycytidine and Trichostatin A,” Blood 103:4102-4110 (2004); Araki et al., “Expansion of Human Umbilical Cord Blood SCID-Repopulating Cells Using Chromatin-Modifying Agents,” Exp. Hematol. 34:140-149 (2006); Araki et al., “Chromatin-Modifying Agents Permit Human Hematopoietic Stem Cells to Undergo Multiple Cell Divisions While Retaining Their Repopulating Potential,” Blood 109:3570-3578 (2007); Chaurasia et al., “Chromatin-Modifying Agents Promote the Ex vivo Production of Functional Human Erythroid Progenitor Cells,” Blood 117:4632-4641 (2011), which are hereby incorporated by reference in their entirety). BM cells (2×10^6) from the primary recipient NSG mice were reinfused into sublethally irradiated secondary NSG recipient mice. Mice were sacrificed 15-16 weeks after transplantation, and BM cells were stained with mAbs and analyzed by flow cytometry for evidence of human chimerism as described above.
# NSG mice [2] = assay: Limiting dilution analysis of SCID-repopulating cells (SRC) in NSG mice; type: in vivo; details: for No. of mice with human cell chimerism/total number of mice transplanted: 12 to 13 weeks
# Experimental: The frequency of human SRCs in PCs and the progeny of an equivalent number of CD34+ cells that were expanded under control conditions or in the presence of VPA were analyzed by limiting dilution analysis as described previously (Boitano et al., “Aryl Hydrocarbon Receptor Antagonists Promote the Expansion of Human Hematopoietic Stem Cells,” Science 329:1345-1348 (2010), which is hereby incorporated by reference in its entirety). Increasing numbers of PCs (50, 250, 500, 2,500, 5,000) or the progeny of an equivalent number of PCs cultured with VPA for 7 days or under control conditions were infused into NSG mice (n=111). The data from the limiting dilution experiments were pooled and analyzed by applying Poisson statistics to the single-hit model (n=111). The frequency was calculated using L-Calc software (StemCell Technologies Inc.) and plotted using ELDA software (bioinf.wehi.edu.au/software/elda/), available at the Walter and Eliza Hall Bioinformatics Institute of Medical Research. The tog fraction of non-responding values was converted to the percentage of negative mice using the following formula: percentage of negative mice=e log fraction.
# NSG mice [3] = assay: Teratoma formation assay in NSG mice; type: in vivo; details: 1×10^6 re-isolated CD34+ cells subcutaneously, 8 weeks
# Experimental: CD34+ cells (1×10^6) re-isolated from control cultures or cultures containing VPA or a similar number of ES cells were suspended in 100 μl of PBS. These cells were mixed with an equal volume of ice-cold Matrigel and injected subcutaneously into the right hind limb of three NSG mice per group (re-isolated CD34+ cells from control cultures, VPA-treated cultures, and ES cells). The mice were observed weekly for teratoma formation and sacrificed after 8 weeks. Teratomas were dissected, fixed, sectioned, and stained with H&E and examined morphologically (O'Connor et al., “Functional Assays for Human Embryonic Stem Cell Pluripotency,” Methods Mol Biol. 690:67-80 (2011), which is hereby incorporated by reference in its entirety).
# [4] = VPA alone (no cytokines), SF, 12-13 weeks
# [5] = cells cultured with cytokines plus VPA, SF, 13-14 weeks after transplantation
smiles,measurement,setting,value
"CCCC(CCC)C(=O)O [VPA, valproic acid]",HDAC1 expression relative to b-ACTIN (%),HDAC1,25.48 ± 7.78%
same,HDAC6 expression relative to b-ACTIN (%),HDAC6,54.2 ± 7.9%
same,Frequency of ALDH+ cells,ALDH activity; SC cultures,41.7 ± 3.3^A %
same,Frequency of ALDH+CD34+ cells,ALDH activity; SC cultures,26.1 ± 5.5^A %
same,Frequency of ALDH+CD34+CD117+ cells,ALDH activity; SC cultures,29.4 ± 1.4^A %
same,Frequency of ALDH+ cells,ALDH activity; SF cultures,86.6 ± 7.4^A %
same,Frequency of ALDH+CD34+ cells,ALDH activity; SF cultures,71.1 ± 3.1^A %
same,Frequency of ALDH+CD34+CD117+ cells,ALDH activity; SF cultures,51.3 ± 4.0^A %
same,"% Human Cell Engraftment in Primary NSG Mice, CD14",NSG mice [1]; [4],2.1 ± 0.2 %
same,"% Human Cell Engraftment in Primary NSG Mice, CD19",NSG mice [1]; [4],1.9 ± 1.1%
same,"% Human Cell Engraftment in Primary NSG Mice, CD33",NSG mice [1]; [4],3.5 ± 0.6 %
same,"% Human Cell Engraftment in Primary NSG Mice, CD34",NSG mice [1]; [4],1.6 ± 0.4 %
same,"% Human Cell Engraftment in Primary NSG Mice, CD41",NSG mice [1]; [4],0.90 ± 0.6%
same,"% Human Cell Engraftment in Primary NSG Mice, CD45",NSG mice [1]; [4],12.5%±5.0% and 12.5 ± 2.2%
same,"% Human Cell Engraftment in Primary NSG Mice, GPA",NSG mice [1]; [4],9.8 ± 0.8%
same,CD45+CD34+ cells in marrow of primary NSG mice,NSG mice [1]; [5],13.0%±8.7%
same,human CD45+ cell chimerism in marrow of primary NSG mice,NSG mice [1]; [5],32.2%±11.3% and 32.3±10.2%
same,donor-derived CD34+ cells coexpressing CD184 in marrow,"NSG mice [1]; cells cultured with cytokines plus VPA, SF, primary NSG mice",9.9%±9.6%
same,blood cancer or teratomas in primary or secondary recipients,"NSG mice [1]; mouse, in vivo",None of the primary or secondary recipients of marrow cells receiving VPA-treated grafts developed evidence of blood cancer or developed teratomas
same,No. of SRCs generated per 1 × 10^6 CD34+ starting cells,"NSG mice [2]; Poisson statistics, VPA 7 days","32,258"
same,increase in the number of SRCs compared with cells cultured under control conditions,NSG mice [2]; VPA treatment versus control cultures,299 fold
same,increase in the number of SRCs compared with PCs,NSG mice [2]; VPA treatment versus primary CB CD34+ cells,36 fold
same,No. of mice with human cell chimerism/total number of mice transplanted,NSG mice [2]; progeny of 50 CD34+ cells,8/10
same,No. of mice with human cell chimerism/total number of mice transplanted,NSG mice [2]; progeny of 250 CD34+ cells,10/10
same,No. of mice with human cell chimerism/total number of mice transplanted,NSG mice [2]; progeny of 500 CD34+ cells,8/8
same,No. of mice with human cell chimerism/total number of mice transplanted,"NSG mice [2]; progeny of 2,500 CD34+ cells",7/7
same,No. of mice with human cell chimerism/total number of mice transplanted,"NSG mice [2]; progeny of 5,000 CD34+ cells",7/7
same,teratoma formation,NSG mice [3],did not form teratomas; also recorded: neither control nor VPA treated CD34+ cells formed teratomas
